Assay results as given in patent US10793892B2, “Method for detecting the presence of expanded spectrum β-lactamase-producing bacteria in a sample” (INSERM (INSTITUT NATIONAL DE LA SANTE ET DE LA RECHERCHE …, priority 2011, dated 2020).

How the values were obtained:
E. coli = test: Susceptibility testing, MIC by Etest; assay type: cell-based, Escherichia coli
Method: (§1) Susceptibility testing was performed by determining MIC values using the Etest® (AB bioMérieux; Solna, Sweden) on Mueller-Hinton agar plates at 37° C. and results were recorded according to US guidelines (CLSI), as updated in 2012 (2). The breakpoints for cefotaxime are susceptible (S)≤1 and resistant (R)≥4 μg/ml, and for ceftazidime S≤4 and R≥16 μg/ml.

S. enterica = test: Susceptibility testing, MIC by Etest; assay type: cell-based, Salmonella enterica
Method: as §1

K. pneumoniae = test: Susceptibility testing, MIC by Etest; assay type: cell-based, Klebsiella pneumoniae
Method: as §1

E. cloacae = test: Susceptibility testing, MIC by Etest; assay type: cell-based, Enterobacter cloacae
Method: as §1

C. freundii = test: Susceptibility testing, MIC by Etest; assay type: cell-based, Citrobacter freundii
Method: as §1

P. mirabilis = test: Susceptibility testing, MIC by Etest; assay type: cell-based, Proteus mirabilis
Method: as §1

E. aerogenes = test: Susceptibility testing, MIC by Etest; assay type: cell-based, Enterobacter aerogenes
Method: as §1

P. stuartii = test: Susceptibility testing, MIC by Etest; assay type: cell-based, Providencia stuartii; conditions: P. stuartii TEM-24, n=1
Method: as §1

K. oxytoca = test: Susceptibility testing, MIC by Etest; assay type: cell-based, Klebsiella oxytoca; conditions: K. oxytoca Wild-type penicillinase, n=1
Method: as §1

M. morganii = test: Susceptibility testing, MIC by Etest; assay type: cell-based, Morganella morganii; conditions: M. morganii Wild-type, chromosome-encoded cephalosporinase, n=2
Method: as §1

C. brakii = test: Susceptibility testing, MIC by Etest; assay type: cell-based; conditions: C. brakii Wild-type, chromosome-encoded cephalosporinase, n=1
Method: as §1

E. sakazakii = test: Susceptibility testing, MIC by Etest; assay type: cell-based; conditions: overexpressed chromosome-encoded cephalosporinase, n=1
Method: as §1

S. ficaria = test: Susceptibility testing, MIC by Etest; assay type: cell-based; conditions: S. ficaria Wild-type, chromosome-encoded cephalosporinase, n=1
Method: as §1

S. marcescens = test: Susceptibility testing, MIC by Etest; assay type: cell-based, Serratia marcescens; conditions: S. marcescens Wild-type, chromosome-encoded cephalosporinase, n=2
Method: as §1

Enterobacteriaceae = assay type: biochemical; conditions: all CTX-M producers (n=147); tazobactam added to cefotaxime well
Method: Strains were isolated on Mueller-Hinton agar (Biorad, Marnes-la-Coquette, France) and incubated at 37° C. for 16 h to 24 h before performing the NDP rapid ESBL test as follows. One calibrated inoculated loop (10 μl) of the tested strain was resuspended in 150 μl of 20 mM Tris-HCl lysis buffer previously distributed in Microbead tubes (Ultraclean Microbial DNA isolation kit Bead Tubes, MO BIO Laboratories, Carlsbad, USA). Mechanical lysis of bacteria was performed by strong agitation of Microbead tubes using a vortex adapter (MO BIO Laboratories) for 30 min at room temperature. This bacterial suspension was centrifuged at 10,000×g at room temperature for 5 min. Thirty μl of the supernatant was mixed in a well of a 96-well tray with 100 μl of a 1 ml solution made of 3 mg of purified cefotaxime sodium salt (Sigma-Aldrich, Saint-Quentin-Fallavier, France) in a pH 7.8 phenol red solution. […] The phenol red solution was made by taking 2 ml of a concentrated pH 8 phenol solution (made from a mixture of phenol red 0.5% in distilled water) to which 16.6 ml of distilled water was added. The pH value was then adjusted to a 7.8 value by adding drops of a 1 N NaOH solution. Mixture of the phenol red solution and the enzymatic suspension being tested was incubated at 37° C. for 30 min. Similarly, culture extracts were analyzed in wells containing cefotaxime and tazobactam (4 mg/ml). […]

## CC(C)(O/N=C(\C(=O)N[C@@H]1C(=O)N2C(C(=O)[O-])=C(C[n+]3ccccc3)CS[C@H]12)c1csc(N)n1)C(=O)O [CAZ, ceftazidime]
E. coli; E. coli ACC-1, n=1, first line
  MICs range: >32 µg/mL
E. coli; E. coli ACC-1, n=1, second line
  MICs range: >32 µg/mL
E. coli; E. coli CMY-2, n=1
  MICs range: >32 µg/mL
E. coli; E. coli CTX-M-1, n=16
  MICs range: 0.5 to 2 µg/mL
E. coli; E. coli CTX-M-2, n=3
  MICs range: 1.5 to 4 µg/mL
E. coli; E. coli CTX-M-3, n=1
  MICs range: 4 µg/mL
E. coli; E. coli CTX-M-9, n=1
  MICs range: 0.19 µg/mL
E. coli; E. coli CTX-M-14, n=15
  MICs range: 0.5 to 4 µg/mL
E. coli; E. coli CTX-M-15, n=46
  MICs range: 0.5 to 24 µg/mL
E. coli; E. coli CTX-M-27, n=6
  MICs range: 0.5 to 4 µg/mL
E. coli; E. coli CTX-M-28, n=1
  MICs range: 8 µg/mL
E. coli; E. coli CTX-M-32, n=1
  MICs range: 6 µg/mL
E. coli; E. coli CTX-M-97, n=1
  MICs range: 2 µg/mL
E. coli; E. coli DHA-1, n=1
  MICs range: 1 µg/mL
E. coli; E. coli SHV-2a, n=3
  MICs range: 2 to 4 µg/mL
E. coli; E. coli SHV-3, n=1
  MICs range: >32 µg/mL
E. coli; E. coli SHV-12, n=1
  MICs range: 8 µg/mL
E. coli; E. coli TEM-1 penicillinase, n=5
  MICs range: 0.09 to 0.12 µg/mL
E. coli; E. coli TEM-12, n=1
  MICs range: 8 µg/mL
E. coli; E. coli TEM-29, n=2
  MICs range: 4 µg/mL
E. coli; E. coli TEM-133, n=1
  MICs range: 12 µg/mL
E. coli; E. coli VEB-1, n=1
  MICs range: >32 µg/mL
E. coli; E. coli Wild-type, no resistance, n=5
  MICs range: 0.05 to 0.19 µg/mL
S. enterica; S. enterica CTX-M-1, n=1
  MICs range: 0.75 µg/mL
S. enterica; S. enterica Wild-type, no resistance, n=1
  MICs range: 0.19 µg/mL
K. pneumoniae; K. pneumoniae CTX-M-3, n=1
  MICs range: 1.5 µg/mL
K. pneumoniae; K. pneumoniae CTX-M-14, n=3
  MICs range: 0.5 to 6 µg/mL
K. pneumoniae; K. pneumoniae DHA-1, n=1
  MICs range: >32 µg/mL
K. pneumoniae; K. pneumoniae DHA-2, n=1
  MICs range: >32 µg/mL
K. pneumoniae; K. pneumoniae GES-1, n=1
  MICs range: 4 µg/mL
K. pneumoniae; K. pneumoniae SHV-2a, n=2
  MICs range: 1 to 4 µg/mL
K. pneumoniae; K. pneumoniae SHV-2a, n=4
  MICs range: 2 to 4 µg/mL
K. pneumoniae; K. pneumoniae SHV-5, n=2
  MICs range: 16 to 32 µg/mL
K. pneumoniae; K. pneumoniae SHV-12, n=1
  MICs range: 8 µg/mL
K. pneumoniae; K. pneumoniae SHV-12, n=2
  MICs range: 16 to 32 µg/mL
K. pneumoniae; K. pneumoniae SHV-28, n=3
  MICs range: >32 µg/mL
K. pneumoniae; K. pneumoniae TEM-52, n=2
  MICs range: >32 µg/mL
K. pneumoniae; K. pneumoniae Wild-type penicillinase, n=2
  MICs range: 0.03 µg/mL
E. cloacae; E. cloacae CTX-M-14, n=1
  MICs range: 8 µg/mL
E. cloacae; E. cloacae CTX-M-15, n=17
  MICs range: 2 to 16 µg/mL
E. cloacae; E. cloacae GES-5, n=1
  MICs range: >32 µg/mL
E. cloacae; E. cloacae PER-1, n=1
  MICs range: >32 µg/mL
E. cloacae; E. cloacae SHV-5, n=1
  MICs range: >32 µg/mL
E. cloacae; E. cloacae TEM-3, n=2
  MICs range: >16 µg/mL
E. cloacae; E. cloacae VEB-1, n=1
  MICs range: >32 µg/mL
E. cloacae; E. cloacae Wild-type, chromosome-encoded cephalosporinase, n=5
  MICs range: 0.12 to 0.38 µg/mL
E. cloacae; E. cloacae, overexpressed chromosome-encoded cephalosporinase, n=2
  MICs range: >32 µg/mL
E. cloacae; E. cloacae, overexpressed chromosome-encoded cephalosporinase, n=3
  MICs range: >32 µg/mL
C. freundii; C. freundii TEM-3, n=1
  MICs range: >16 µg/mL
C. freundii; C. freundii Wild-type, chromosome-encoded cephalosporinase, n=1
  MICs range: 0.25 µg/mL
P. mirabilis; P. mirabilis ACC-1, n=1
  MICs range: >32 µg/mL
P. mirabilis; P. mirabilis CTX-M-14, n=1
  MICs range: 0.75 µg/mL
P. mirabilis; P. mirabilis CTX-M-15, n=1
  MICs range: 8 µg/mL
P. mirabilis; P. mirabilis PER-1, n=1
  MICs range: >32 µg/mL
P. mirabilis; P. mirabilis TEM-21, n=1
  MICs range: 4 µg/mL
P. mirabilis; P. mirabilis TEM-52, n=1
  MICs range: 16 µg/mL
E. aerogenes; E. aerogenes TEM-121, n=1
  MICs range: >32 µg/mL
E. aerogenes; E. aerogenes Wild-type, chromosome-encoded cephalosporinase, n=1
  MICs range: 0.25 µg/mL
P. stuartii
  MICs range: 8 µg/mL
K. oxytoca
  MICs range: 0.06 µg/mL
M. morganii
  MICs range: 0.09 to 1 µg/mL
C. brakii
  MICs range: 0.25 µg/mL
E. sakazakii
  MICs range: >32 µg/mL
S. ficaria
  MICs range: 0.09 µg/mL
S. marcescens
  MICs range: 0.09 µg/mL

## C[C@]1(Cn2ccnn2)[C@H](C(=O)O)N2C(=O)C[C@H]2S1(=O)=O [tazobactam]
Enterobacteriaceae
  color of the wells: remained red
